The target in this assay is T1, Human CaV2.2 channels (Homo sapiens, UniProt Q00975).
T1 construct: expressed in transfected cells
T1 sequence (Q00975 whole entry): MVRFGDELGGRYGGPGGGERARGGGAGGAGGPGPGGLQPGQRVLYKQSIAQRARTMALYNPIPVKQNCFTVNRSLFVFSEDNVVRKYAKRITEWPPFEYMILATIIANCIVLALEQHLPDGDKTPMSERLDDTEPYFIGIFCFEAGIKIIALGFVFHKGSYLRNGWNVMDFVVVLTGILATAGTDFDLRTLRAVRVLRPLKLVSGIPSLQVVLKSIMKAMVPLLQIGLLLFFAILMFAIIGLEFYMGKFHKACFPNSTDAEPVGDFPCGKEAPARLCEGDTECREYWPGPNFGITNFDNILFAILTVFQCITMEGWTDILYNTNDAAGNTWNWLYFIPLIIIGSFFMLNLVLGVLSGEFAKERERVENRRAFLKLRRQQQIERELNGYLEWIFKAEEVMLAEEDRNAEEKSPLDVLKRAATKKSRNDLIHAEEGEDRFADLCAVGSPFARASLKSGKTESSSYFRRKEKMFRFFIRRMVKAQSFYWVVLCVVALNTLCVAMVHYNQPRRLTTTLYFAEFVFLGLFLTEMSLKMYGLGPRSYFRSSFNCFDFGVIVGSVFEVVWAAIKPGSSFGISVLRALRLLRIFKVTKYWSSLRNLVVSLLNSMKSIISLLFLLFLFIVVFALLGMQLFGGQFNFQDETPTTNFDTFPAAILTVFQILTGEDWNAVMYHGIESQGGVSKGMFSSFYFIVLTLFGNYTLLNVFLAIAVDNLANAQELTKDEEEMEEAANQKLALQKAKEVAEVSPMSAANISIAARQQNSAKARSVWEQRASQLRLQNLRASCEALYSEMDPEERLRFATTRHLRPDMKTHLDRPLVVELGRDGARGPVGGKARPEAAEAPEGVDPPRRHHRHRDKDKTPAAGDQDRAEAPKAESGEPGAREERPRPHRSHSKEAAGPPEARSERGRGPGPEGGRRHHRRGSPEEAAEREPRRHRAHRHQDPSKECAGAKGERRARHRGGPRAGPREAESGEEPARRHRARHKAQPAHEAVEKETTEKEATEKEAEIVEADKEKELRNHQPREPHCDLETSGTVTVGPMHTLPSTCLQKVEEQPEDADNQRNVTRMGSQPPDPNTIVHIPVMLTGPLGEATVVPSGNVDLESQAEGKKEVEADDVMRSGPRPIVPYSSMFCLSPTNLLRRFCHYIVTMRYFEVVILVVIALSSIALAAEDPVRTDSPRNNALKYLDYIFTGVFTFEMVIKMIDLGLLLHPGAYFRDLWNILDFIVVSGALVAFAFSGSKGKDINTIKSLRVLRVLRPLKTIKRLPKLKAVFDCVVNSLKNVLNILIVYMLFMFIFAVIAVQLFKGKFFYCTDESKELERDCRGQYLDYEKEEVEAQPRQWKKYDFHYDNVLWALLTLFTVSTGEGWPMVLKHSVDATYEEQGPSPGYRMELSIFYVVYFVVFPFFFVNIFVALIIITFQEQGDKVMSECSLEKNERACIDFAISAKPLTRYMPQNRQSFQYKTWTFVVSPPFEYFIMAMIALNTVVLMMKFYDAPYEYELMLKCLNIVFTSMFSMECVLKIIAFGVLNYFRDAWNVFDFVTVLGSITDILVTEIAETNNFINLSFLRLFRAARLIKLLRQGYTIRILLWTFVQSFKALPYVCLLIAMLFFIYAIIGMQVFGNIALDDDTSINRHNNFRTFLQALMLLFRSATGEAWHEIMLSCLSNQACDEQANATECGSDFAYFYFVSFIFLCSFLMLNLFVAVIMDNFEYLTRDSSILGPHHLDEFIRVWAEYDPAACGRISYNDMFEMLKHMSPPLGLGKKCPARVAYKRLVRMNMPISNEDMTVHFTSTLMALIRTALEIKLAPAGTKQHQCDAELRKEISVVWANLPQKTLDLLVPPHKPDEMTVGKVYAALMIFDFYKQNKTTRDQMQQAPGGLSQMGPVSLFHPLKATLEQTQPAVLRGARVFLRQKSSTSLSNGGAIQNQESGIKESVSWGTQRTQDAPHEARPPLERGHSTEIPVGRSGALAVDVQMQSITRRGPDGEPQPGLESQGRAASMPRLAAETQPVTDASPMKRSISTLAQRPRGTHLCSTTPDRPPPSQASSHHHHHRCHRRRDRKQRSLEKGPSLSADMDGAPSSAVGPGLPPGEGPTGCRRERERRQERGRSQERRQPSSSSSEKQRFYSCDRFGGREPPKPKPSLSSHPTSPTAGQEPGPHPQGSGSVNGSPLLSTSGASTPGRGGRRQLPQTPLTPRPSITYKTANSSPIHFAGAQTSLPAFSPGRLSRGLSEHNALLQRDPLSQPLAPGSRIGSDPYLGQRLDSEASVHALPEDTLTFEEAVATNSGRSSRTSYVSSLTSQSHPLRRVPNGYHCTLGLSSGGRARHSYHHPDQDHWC
T1 sequence (P54289 25-1103, further chain): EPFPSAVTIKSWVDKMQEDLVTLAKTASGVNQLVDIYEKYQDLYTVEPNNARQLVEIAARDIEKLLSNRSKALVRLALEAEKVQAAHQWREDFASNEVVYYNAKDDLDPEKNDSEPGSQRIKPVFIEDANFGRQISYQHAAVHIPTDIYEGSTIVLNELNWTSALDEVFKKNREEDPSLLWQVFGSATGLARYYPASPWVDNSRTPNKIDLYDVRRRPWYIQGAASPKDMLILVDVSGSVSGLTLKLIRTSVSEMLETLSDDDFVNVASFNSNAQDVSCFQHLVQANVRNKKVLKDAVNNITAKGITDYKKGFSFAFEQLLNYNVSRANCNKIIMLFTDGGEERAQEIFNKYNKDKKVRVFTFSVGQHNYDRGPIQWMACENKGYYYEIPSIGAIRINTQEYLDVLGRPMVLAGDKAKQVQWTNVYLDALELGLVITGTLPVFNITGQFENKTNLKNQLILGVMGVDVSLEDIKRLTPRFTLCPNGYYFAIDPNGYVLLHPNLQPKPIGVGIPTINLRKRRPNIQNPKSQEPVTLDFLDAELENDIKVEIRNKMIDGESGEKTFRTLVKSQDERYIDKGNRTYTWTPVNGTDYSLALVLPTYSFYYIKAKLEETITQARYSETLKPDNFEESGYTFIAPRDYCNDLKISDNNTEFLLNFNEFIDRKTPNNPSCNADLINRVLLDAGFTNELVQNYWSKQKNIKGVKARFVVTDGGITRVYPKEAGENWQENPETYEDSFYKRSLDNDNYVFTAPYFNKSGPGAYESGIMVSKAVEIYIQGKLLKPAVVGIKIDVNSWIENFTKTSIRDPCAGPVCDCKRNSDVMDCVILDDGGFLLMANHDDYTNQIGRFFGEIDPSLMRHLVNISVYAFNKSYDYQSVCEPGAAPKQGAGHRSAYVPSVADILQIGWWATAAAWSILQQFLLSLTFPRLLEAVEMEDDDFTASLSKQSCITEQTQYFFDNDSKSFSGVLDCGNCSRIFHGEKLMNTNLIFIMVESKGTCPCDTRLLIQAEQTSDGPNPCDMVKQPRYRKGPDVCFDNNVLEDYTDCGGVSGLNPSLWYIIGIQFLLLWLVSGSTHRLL
T1 sequence (P54284 whole entry, further chain): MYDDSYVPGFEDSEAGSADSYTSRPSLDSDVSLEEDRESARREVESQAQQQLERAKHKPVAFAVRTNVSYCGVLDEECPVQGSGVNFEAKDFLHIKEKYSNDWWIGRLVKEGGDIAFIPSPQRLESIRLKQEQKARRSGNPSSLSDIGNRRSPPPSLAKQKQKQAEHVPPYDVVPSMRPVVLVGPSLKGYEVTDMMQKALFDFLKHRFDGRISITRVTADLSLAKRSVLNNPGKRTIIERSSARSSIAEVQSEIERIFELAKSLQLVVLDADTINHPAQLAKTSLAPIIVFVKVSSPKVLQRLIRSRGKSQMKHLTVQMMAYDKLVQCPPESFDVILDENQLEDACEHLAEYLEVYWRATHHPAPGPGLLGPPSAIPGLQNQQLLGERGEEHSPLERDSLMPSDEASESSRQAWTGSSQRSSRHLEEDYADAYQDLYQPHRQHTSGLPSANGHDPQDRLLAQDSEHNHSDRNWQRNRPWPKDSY
Briefly: Fluorescent assay for CaV2.2 channels using potassium depolarization to induce channel opening (FLIPR, Fluo 4). It is filed as cell-based. The settings on record: read-out: Activity Category: %-Inhib (CaV2.2) @3 μM @30 mM KCl; 3 μM test compound; 30 mM KCl as printed; HEK293 cells stably expressing human CaV2.2. An excerpt: In the process, the Ca^2+ influx is quantified in the FLIPR assay with the aid of a Ca^2+-sensitive dye (type Fluo-4, Molecular Probes Europe BV, Leiden, the Netherlands) in a fluorescent imaging plate reader (FLIPR 3, Molecular Devices, Sunnyvale, USA), as described hereinafter.
Human CaV2.2 channels were stably expressed in HEK293 cells together with alpha2-delta and beta subunits of voltage gated calcium channels. In addition, an inwardly rectifying potassium channel (Kir2.3) was stably expressed in these cells to augment control of the cell membrane potential by the concentration of extracellular potassium ions. Raise of the extracellular potassium concentration leads to depolarization of the membrane potential and thus regulates the voltage dependent state of CaV2.2 channels. For preparation, cells were seeded in black poly-D-lysine coated 96-well plates (Becton Dickinson, Biocoat 4640) in 100 μL medium [500 mL DMEM/F-12 plus Glutamax (Invitrogen 31331-093) plus 5.5 mL MEM NEAA 100× (Invitrogen 11140-035) plus 50 mL FBS decomplemented (Invitrogen 10270-106) plus 200 μg/mL Geneticin (Invitrogen 10131-027) plus 50 μg/mL Hygromycin B (Invitrogen 10687-010) plus 2 μg/mL Blasticidin (anti-bl5b Invivo-Gen) plus 0.2 μg/mL Puromycin (A 11138-03)] at a cell density of 30.000 cells per well. Plates were incubated at 37° C. (5% CO2) for 20 to 23 h. On the day of experiment medium was discarded and cells were loaded with Fluo 4 by addition of 100 μL of basic assay buffer (10 mM HEPES, 1 mM KCl, 149 mM NaCl, 0.8 mM CaCl2, 1.7 mM MgCl2, 10 mM Glucose, 0.1% BSA. pH 7.4) containing 2 μM Fluo 4 (Molecular Probes; F-14201), 0.01% pluronic acid (Molecular Probes; P-6866) and 2.5 mM probenecid (Molecular Probes; P36400). Cells were incubated in the dark at 25° C. for 60 min. Then dye containing buffer was discarded and 100 μL basic (1 mM KCl) or alternative (30 mM KCl) assay buffer was added. The alternative assay buffer contained altered concentrations of KCl (30 mM) and NaCl (120 mM) and was used in order to promote the inactivated channel state. After that 25 μL of basic or alternative assay buffer with or without test compound were added and cells were incubated again in the dark at 25° C. for 15 min. Fluorescence intensity was measured on a FLIPR 3 instrument (Molecular Devices Corp., Sunnyvale, Calif.) with excitation at 480 nm and emission at 535 nm. After continuously reading fluorescence for 30 sec, 50 μL of basic assay buffer containing 210 mM KCl (NaCl omitted) were added for depolarization. Peak fluorescent signal intensity was determined and the amplitude of the peak signal, normalized to base line, was used to measure channel inhibition by test compounds.
For `Cc1c(-c2ccc(Cl)cc2)c(C(=O)N2CCOCC2)n(Cc2cncc(Cl)c2)c1C(F)(F)F` [Example 028, [3-(4-Chlorophenyl)-1-[(5-chloro-pyridin-3-yl)-methyl]-4-methyl-5-(trifluoromethyl)-1H-pyrrol-2-yl]-morpholin-4-yl-methanone], the inhibition at 3 µM is more than 95%. Next, `CN(CC(C)(C)C)C(=O)c1c(-c2ccc(Cl)cc2)cc(C(F)(F)F)n1Cc1ccc(F)cn1` [Example 029, 3-(4-Chlorophenyl)-N-(2,2-dimethyl-propyl)-1-[(5-fluoro-pyridin-2-yl)-methyl]-N-methyl-5-(trifluoromethyl)-1H-pyrrole-2-carboxylic acid amide]: more than 95%; `Cc1cnc(Cn2c(C(F)(F)F)cc(-c3ccc(Cl)cc3)c2C(=O)N(C)CC(C)(C)C)cn1` [Example 030, 3-(4-Chlorophenyl)-N-(2,2-dimethyl-propyl)-N-methyl-1-[(5-methyl-pyrazin-2-yl)-methyl]-5-(trifluoromethyl)-1H-pyrrole-2-carboxylic acid amide]: more than 95%. With `CC1(C)CN(C(=O)c2c(-c3ccc(F)cc3)cc(C(F)(F)F)n2Cc2ncccn2)CCO1` [Example 031, (2,2-Dimethyl-morpholin-4-yl)-[3-(4-fluorophenyl)-1-(pyrimidin-2-yl-methyl)-5-(trifluoromethyl)-1H-pyrrol-2-yl]-methanone], the inhibition at 3 µM was 40 to 75%. Next, `CN(CC(C)(C)C)C(=O)c1c(-c2ccc(Cl)cc2)cc(C(F)(F)F)n1Cc1ccnc(C(F)(F)F)n1` [Example 033, 3-(4-Chlorophenyl)-N-(2,2-dimethyl-propyl)-N-methyl-5-(trifluoromethyl)-1-[[2-(trifluoromethyl)-pyrimidin-4-yl]-methyl]-1H-pyrrole-2-carboxylic acid amide]: 40 to 75%; `Cc1ncc(Cn2c(C(F)(F)F)cc(-c3ccc(Cl)cc3)c2C(=O)N(C)CC(C)(C)C)cn1` [Example 034, 3-(4-Chlorophenyl)-N-(2,2-dimethyl-propyl)-N-methyl-1-[(2-methyl-pyrimidin-5-yl)-methyl]-5-(trifluoromethyl)-1H-pyrrole-2-carboxylic acid amide]: 75 to 95%; `Cc1ccnc(Cn2c(C(F)(F)F)cc(-c3ccc(Cl)cc3)c2C(=O)N(C)CC(C)(C)C)n1` [Example 036, 3-(4-Chlorophenyl)-N-(2,2-dimethyl-propyl)-N-methyl-1-[(4-methyl-pyrimidin-2-yl)-methyl]-5-(trifluoromethyl)-1H-pyrrole-2-carboxylic acid amide]: more than 95%. For `CN(CC(C)(C)C)C(=O)c1c(-c2ccc(Cl)cc2)cc(C(F)(F)F)n1Cc1ncccn1` [Example 037, 3-(4-Chlorophenyl)-N-(2,2-dimethyl-propyl)-N-methyl-1-(pyrimidin-2-yl-methyl)-5-(trifluoromethyl)-1H-pyrrole-2-carboxylic acid amide], the inhibition at 3 µM is more than 95%.

For `Cc1c(-c2ccc(Cl)cc2)c(C(=O)N(C)CCS(C)(=O)=O)n(Cc2ccc(F)cn2)c1C(F)(F)F` [Example 038, 3-(4-Chlorophenyl)-1-[(5-fluoro-pyridin-2-yl)-methyl]-N,4-dimethyl-N-(2-methylsulfonyl-ethyl)-5-(trifluoromethyl)-1H-pyrrole-2-carboxylic acid amide], the inhibition at 3 µM was more than 95%. In the case of `Cc1c(-c2ccc(Cl)cc2)c(C(=O)N(C)CCS(C)(=O)=O)n(Cc2ncccn2)c1C(F)(F)F` [Example 039, 3-(4-Chlorophenyl)-N,4-dimethyl-N-(2-methylsulfonyl-ethyl)-1-(pyrimidin-2-yl-methyl)-5-(trifluoromethyl)-1H-pyrrole-2-carboxylic acid amide], the inhibition at 3 µM is 75 to 95%. For `Cc1c(-c2ccc(Cl)cc2)c(C(=O)N2CCOC(C)(C)C2)n(Cc2ncccn2)c1C(F)(F)F` [Example 040, [3-(4-Chlorophenyl)-4-methyl-1-(pyrimidin-2-yl-methyl)-5-(trifluoromethyl)-1H-pyrrol-2-yl]-(2,2-dimethyl-morpholin-4-yl)-methanone] the value was 75 to 95%. Consider `COc1cccc(Cn2c(C(=O)N3CCOCC3)c(-c3ccc(Cl)cc3)c(C)c2C(F)(F)F)n1` [Example 041, [3-(4-Chlorophenyl)-1-[(6-methoxy-pyridin-2-yl)-methyl]-4-methyl-5-(trifluoromethyl)-1H-pyrrol-2-yl]-morpholin-4-yl-methanone], for which the inhibition at 3 µM is more than 95%. For `Cc1cnc(Cn2c(C(=O)N3CCOCC3)c(-c3ccc(Cl)cc3)c(C)c2C(F)(F)F)cn1` [Example 042, [3-(4-Chlorophenyl)-4-methyl-1-[(5-methyl-pyrazin-2-yl)-methyl]-5-(trifluoromethyl)-1H-pyrrol-2-yl]-morpholin-4-yl-methanone], the inhibition at 3 µM is more than 95%. On to `Cc1ncc(Cn2c(C(=O)N3CCOCC3)c(-c3ccc(Cl)cc3)c(C)c2C(F)(F)F)cn1` [Example 043, [3-(4-Chlorophenyl)-4-methyl-1-[(2-methyl-pyrimidin-5-yl)-methyl]-5-(trifluoromethyl)-1H-pyrrol-2-yl]-morpholin-4-yl-methanone], for which the inhibition at 3 µM lay within 75 to 95%. Consider `Cc1c(-c2ccc(Cl)cc2)c(C(=O)N2CCOCC2)n(Cc2ccc(F)cn2)c1C(F)(F)F` [Example 044, [3-(4-Chlorophenyl)-1-[(5-fluoro-pyridin-2-yl)-methyl]-4-methyl-5-(trifluoromethyl)-1H-pyrrol-2-yl]-morpholin-4-yl-methanone], for which the inhibition at 3 µM was more than 95%. In the case of `Cc1cnc(Cn2c(C(=O)N3CCOCC3)c(-c3ccc(Cl)cc3)c(C)c2C(F)(F)F)nc1` [Example 045, [3-(4-Chlorophenyl)-4-methyl-1-[(5-methyl-pyrimidin-2-yl)-methyl]-5-(trifluoromethyl)-1H-pyrrol-2-yl]-morpholin-4-yl-methanone], the inhibition at 3 µM is more than 95%. Turning to `Cc1ccnc(Cn2c(C(=O)N3CCOCC3)c(-c3ccc(Cl)cc3)c(C)c2C(F)(F)F)n1` [Example 046, [3-(4-Chlorophenyl)-4-methyl-1-[(4-methyl-pyrimidin-2-yl)-methyl]-5-(trifluoromethyl)-1H-pyrrol-2-yl]-morpholin-4-yl-methanone], the inhibition at 3 µM was more than 95%. Next, `Cc1c(-c2ccc(Cl)cc2)c(C(=O)N2CCOCC2)n(Cc2ncccn2)c1C(F)(F)F` [Example 047, [3-(4-Chlorophenyl)-4-methyl-1-(pyrimidin-2-yl-methyl)-5-(trifluoromethyl)-1H-pyrrol-2-yl]-morpholin-4-yl-methanone]: more than 95%; `Cc1c(-c2ccc(Cl)cc2)c(C(=O)NC2CC2)n(Cc2ncccn2)c1C(F)(F)F` [Example 048, 3-(4-Chlorophenyl)-N-cyclopropyl-4-methyl-1-(pyrimidin-2-yl-methyl)-5-(trifluoromethyl)-1H-pyrrole-2-carboxylic acid amide]: 40 to 75%; `Cc1c(-c2ccc(Cl)cc2)c(C(=O)N(C)CC(C)(C)C)n(-c2cnccn2)c1C(F)(F)F` [Example 049, 3-(4-Chlorophenyl)-N-(2,2-dimethyl-propyl)-N,4-dimethyl-1-pyrazin-2-yl-5-(trifluoromethyl)-1H-pyrrole-2-carboxylic acid amide]: 75 to 95%.

The record behind these values is patent US9802921B2, “Fluoromethyl-substituted pyrrole carboxamides iv” (Grünenthal GmbH, priority 2013, dated 2017).
